Data from patent publication US20250144250A1, “PH-SENSITIVE FLUOROPHORES” (The General Hospital Corporation, priority 2022, published 2025).

Columns and labels:
[1] = Measurement of optophysical properties (absorbance, fluorescence emission, quantum yield, pH dependence); type: physicochemical; settings: for Abs λMax / Em λMax / QY (quantum yield) / ε (extinction coefficient): pH 7.4
Description: Measurement of optophysical properties: Absorbance and fluorescence emission spectra of the series of NIR fluorophores were measured using fiber optic HR2000 absorbance (200-1100 nm) and USB2000FL fluorescence (350-1000 nm) spectrometers (Ocean Optics, Dunedin, FL). NIR excitation was provided by a 655 nm red laser pointer (Opcom Inc., Xiamen, China) set to 5 mW and coupled through a 300 μm core diameter, NA 0.22 fiber (Fiberguide Industries, Stirling, NJ). To determine the pH dependence of the fluorescence signal, optical measurements were performed at 37° C. in PBS, pH 4.0-7.4 or 100% FBS buffered with 50 mM HEPES, pH 4.0-7.4. The pH of the solutions was adjusted as appropriate with NaOH and HCl using a pH spear tester (Thermo Scientific). For fluorescence quantum yield (QY) measurements, indocyanine green (ICG) in DMSO (QY=13%) was used as a calibration standard to measure the fluorescence QY under conditions of matched absorbance at 765 nm. In silico calculations of the partition coefficient (LogP and LogD at pH 7.4), surface molecular charge, hydrophobicity, hydrogen bond acceptors/donors (HBA/HBD), the acid dissociation constant (pKa), and topological polar surface area (TPSA) were calculated using Marvin and JChem calculator plugins (ChemAxon, Budapest, Hungary). Theoretical calculations of HOMO and LUMO energy levels of fluorophores were performed based on density functional theory (DFT) with a 6-311 G basis set using Spartan 18 software (Wavefunction, Irvine, CA). […]

ID8 cells = experiment: Live-cell labeling and in vitro imaging: cellular uptake of NIR fluorophores; type: cell-based, murine; settings: fluorescence microscopy
Description: FIG. 2 Cellular uptake of pH sensing NIR fluorophores via membrane transporters: In vitro tumor cell uptake of the pH sensing NIR probes under normoxic and hypoxic conditions. Murine cancer cell line ID8 cells were incubated at normoxic or hypoxic conditions (1% O2) for 24 h at 37° C. and then incubated for 30 min in the presence of 0.1 μM NIR probes. (a) Representative fluorescence images of cells are shown. The contrast was normalized across all images. Scale bar=100 μm. (b) Quantitative time-course measurements of the fluorescence intensity in cells. *P<0.05, **P<0.01 by two-way ANOVA followed by Tukey's multiple comparisons test (Normoxia vs. Hypoxia). Error bars show mean #s.d. (c) Inhibition assay of transporters to determine the entry mechanisms in ID8 cells. […] Representative fluorescence images of cells are shown. […] (d) Quantitative measurements of the fluorescence intensity in cells. *P<0.05 by two-way ANOVA followed by Tukey's multiple comparisons test. […]
Live-cell labeling and in vitro imaging: Murine ovarian cancer cells (ID8 cells) were obtained from Dr. Wang's lab in the Vincent Center for Reproductive Biology at Massachusetts General Hospital (MGH). […] Image acquisition and analysis were performed using IPLab software (Scanalytics, Fairfax, VA), and the fluorescent intensity of each cell was measured using ImageJ (National Institutes of Health, Bethesda, MD). […]

Row | Abs λMax [1] | Em λMax [1] | QY (quantum yield) [1] | ε (extinction coefficient) [1] | absorbance wavelength before red-shift ([1]; neutral pH (7.4)) | molecular absorbance ε at 760 nm ([1]; neutral pH condition (pH=7.4)) | absorbance wavelength after red-shift ([1]; pH 4.0) | molecular absorbance ε at 760 nm ([1]; pH decreases to 4.0) | Compound | optical response to pH [1] | accumulation in cells (ID8 cells)
1 | 765 nm | 785 nm | 21.7% | 364,800 M^−1cm^−1 |  |  |  |  | CCN1/C(=C/C=C2\CCCC(/C=C/C3=[N+](CC)c4ccccc4C3(C)C)=C2c2ccccc2)C(C)(C)c2ccccc21 [PH03, 1-Ethyl-2-((E)-2-((E)-6-(2-((E)-1-ethyl-3,3-dimethylindolin-2-ylidene)ethylidene)-3,4,5,6-tetrahydro-[1,1′-biphenyl]-2-yl)vinyl)-3,3-dimethyl-3H-indol-1-ium iodide] | little to no change in response to pH | time-dependent manner
2 | 710 nm | 794 nm | 16.0% | 43,800 M^−1cm^−1 | 710 nm | 92,600 M^−1 cm^−1 | 765 nm | 134,500 M^−1 cm^−1 | CCN1/C(=C/C=C2\CCCC(/C=C/C3=[N+](CC)c4ccccc4C3(C)C)=C2N2CCNCC2)C(C)(C)c2ccccc21 [PH08] | increases its fluorescence in mildly acidic conditions between pH 7.0 and 4.0 | time-dependent manner
